In patent publication US12459974B2, “Bicyclic peptide ligands specific for Nectin-4” (priority 2018, dated 2025) one finds Ki data, which are given here for ten molecules.

*1 amine or outer side, *2 acyl side, *3 side chain or, on linkers, in order; H or OH if unused. Where a SMILES comes first, the peptide text is derived from it. Bridges are numbered along the chain shown (N, C = ends). TATA = O=C(CC[*:1])N1CN(C(=O)CC[*:2])CN(C(=O)CC[*:3])C1

One assay has as its target T1, human Nectin-4 (Homo sapiens, UniProt Q96NY8).
T1 sequence (Q96NY8 32-510): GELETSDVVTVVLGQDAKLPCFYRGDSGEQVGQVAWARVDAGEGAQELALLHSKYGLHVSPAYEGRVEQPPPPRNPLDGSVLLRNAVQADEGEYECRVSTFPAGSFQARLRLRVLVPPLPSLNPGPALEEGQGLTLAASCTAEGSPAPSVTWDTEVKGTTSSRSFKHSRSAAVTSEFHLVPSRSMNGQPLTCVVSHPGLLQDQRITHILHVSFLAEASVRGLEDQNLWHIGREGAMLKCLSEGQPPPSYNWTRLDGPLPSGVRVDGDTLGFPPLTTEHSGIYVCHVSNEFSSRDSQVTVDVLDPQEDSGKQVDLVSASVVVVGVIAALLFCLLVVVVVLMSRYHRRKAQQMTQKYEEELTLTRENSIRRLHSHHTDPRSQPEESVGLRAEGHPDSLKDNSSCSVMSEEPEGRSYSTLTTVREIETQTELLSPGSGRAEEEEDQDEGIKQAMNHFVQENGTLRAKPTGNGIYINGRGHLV
Briefly: Nectin-4 competition binding assay (fluorescence polarisation).
Conditions: not given
Here is the method: Peptides were diluted to an appropriate concentration in assay buffer as described in the direct binding assay with a maximum of 5% DMSO, then serially diluted 1 in 2. Five μL of diluted peptide was added to the plate followed by 10 μL of human Nectin-4, then 10 μL fluorescent peptide added. Measurements were conducted as for the direct binding assay, however the gain was determined prior to the first measurement. Data analysis was in Systat Sigmaplot version 12.0 where the mP values were fit to a user defined cubic equation to generate a Ki value: • f=ymin+(ymax−ymin)/Lig*((Lig*((2*((Klig+Kcomp+Lig+Comp-Prot*c)^2-3*(Kcomp*(Lig-Prot*c)+Klig*(Comp-Prot*c)+Klig*Kcomp))^0.5*COS(ARCCOS((−2*(Klig+Kcomp+Lig+Comp-Prot*c)^3+9*(Klig+Kcomp+Lig+Comp-Prot*c)*(Kcomp*(Lig-Prot*c)+Klig*(Comp-Prot*c)+Klig*Kcomp)−27*(−1*Klig*Kcomp*Prot*c)/(2*((((Klig+Kcomp+Lig+Comp-Prot*c)^2−3*(Kcomp*(Lig-Prot*c)+Klig*(Comp-Prot*c)+Klig*Kcomp))^3)^0.5)))/3))−(Klig+Kcomp+Lig+Comp-Prot*c)))/((3*Klig)+((2*((Klig+Kcomp+Lig+Comp-Prot*c)^2−3*(Kcomp*(Lig-Prot*c)+Klig*(Comp-Prot*c)+Klig*Kcomp))^0.5*COS (ARCCOS ((−2*(Klig+Kcomp+Lig+Comp-Prot*c)^3+9*(Klig+Kcomp+Lig+Comp-Prot*c)*(Kcomp*(Lig-Prot*c)+Klig*(Comp-Prot*c)+Klig*Kcomp)-27*(−1*Klig*Kcomp*Prot*c))/(2*((((Klig+Kcomp+Lig+Comp-Prot*c)^2-3*(Kcomp*(Lig-Prot*c)+Klig*(Comp-Prot+c)+Klig*Kcomp))^3)^0.5))/3)−(Klig+Kcomp+Lig+Comp-Prot*c)))).
“Lig”, “KLig” and “Prot” were all defined values relating to: fluorescent peptide concentration, the Kd of the fluorescent peptide and Nectin concentration respectively.
For orientation: Fluorescence polarisation rises when a labelled molecule tumbles more slowly, as on binding a larger partner.
The molecule `CC[C@H](C)[C@@H]1NC(=O)[C@@H]2CCCN2C(=O)[C@H](Cc2c[nH]c3ccccc23)NC(=O)[C@H](CO)NC(=O)[C@H](Cc2c[nH]c3ccccc23)NC(=O)CNC(=O)[C@H](CCCNC(=N)N)NC(=O)[C@H](CCSC)NC(=O)[C@@H]2CSCCC(=O)N3CN(CN(C3)C(=O)CCSC[C@H](NC(=O)[C@H](C)NC(=O)[C@@H](NC(=O)[C@@H](N)CC(=O)O)[C@@H](C)O)C(=O)N3CCC[C@H]3C(=O)N[C@@H](Cc3ccccc3)C(=O)NCC(=O)N2)C(=O)CCSC[C@@H](C(=O)N[C@@H](C)C(N)=O)NC(=O)[C@H](Cc2c[nH]c3ccccc23)NC1=O` [BCY3388, DTA-(SEQ ID NO: 46)-A] (H-DTACPFGCMRGWSWPIWCA-NH2; linker 4-8-18 via TATA) showed a Ki of 0.129 µM.

The assay is the same for the next values; noted with them: competition with fluorescent peptide SEQ ID NO: 217; read-out: Ki.
For `CC[C@H](C)[C@@H]1NC(=O)[C@@H]2CCCN2C(=O)[C@H](Cc2c[nH]c3ccccc23)NC(=O)[C@H](CO)NC(=O)[C@H](Cc2c[nH]c3ccccc23)NC(=O)[C@H](CC(N)=O)NC(=O)[C@H](CCCNC(=N)N)NC(=O)[C@H](CCSC)NC(=O)[C@@H]2CSCCC(=O)N3CN(CN(C3)C(=O)CCSC[C@H](NC(=O)[C@H](C)N)C(=O)N3CCC[C@H]3C(=O)N[C@@H](Cc3ccccc3)C(=O)NCC(=O)N2)C(=O)CCSC[C@@H](C(=O)N[C@@H](C)C(N)=O)NC(=O)[C@H](Cc2c[nH]c3ccccc23)NC1=O` [BCY429, A-(SEQ ID NO: 2)-A] (H-ACPFGCMRNWSWPIWCA-NH2; linker 2-6-16 via TATA; N-terminus and C-terminus assumed), the Ki was 0.0426 µM.

With `CC[C@H](C)[C@@H]1NC(=O)[C@H](CCCNC(=N)N)NC(=O)CNC(=O)[C@@H]2CSCCC(=O)N3CN(CN(C3)C(=O)CCSC[C@@H](C(=O)N[C@@H](C)C(N)=O)NC1=O)C(=O)CCSC[C@H](NC(=O)[C@H](C)N)C(=O)N[C@@H](Cc1c[nH]c3ccccc13)C(=O)N1CCC[C@H]1C(=O)N[C@@H](CC(C)C)C(=O)N[C@@H](CC(=O)O)C(=O)N1CCC[C@H]1C(=O)N[C@@H](Cc1ccc(O)cc1)C(=O)N[C@@H](Cc1c[nH]c3ccccc13)C(=O)N2` [BCY430, A-(SEQ ID NO: 43)-A] (H-ACWPLDPYWCGRICA-NH2; linker 2-10-14 via TATA; N-terminus and C-terminus assumed), the Ki was found to be 0.31 µM.

With `CC[C@H](C)[C@@H]1NC(=O)[C@H](CCCNC(=N)N)NC(=O)CNC(=O)[C@@H]2CSCCC(=O)N3CN(CN(C3)C(=O)CCSC[C@@H](C(=O)N[C@@H](C)C(N)=O)NC1=O)C(=O)CCSC[C@H](NC(=O)[C@H](Cc1c[nH]c3ccccc13)NC(=O)[C@H](CC(=O)O)NC(=O)[C@@H](N)CC(=O)O)C(=O)N[C@@H](C)C(=O)N1CCC[C@H]1C(=O)N[C@@H](CC(C)C)C(=O)N[C@@H](CC(=O)O)C(=O)N[C@@H](CC(=O)O)C(=O)N[C@@H](Cc1ccc(O)cc1)C(=O)N[C@@H](Cc1c[nH]c3ccccc13)C(=O)N2` [BCY433, DDW-(SEQ ID NO: 32)-A] (H-DDWCAPLDDYWCGRICA-NH2; linker 4-12-16 via TATA; N-terminus and C-terminus assumed), the inhibitory constant (Ki) was found to be 0.0694 µM.

In the case of `CC[C@H](C)[C@@H]1NC(=O)[C@@H]2CCCN2C(=O)[C@H](Cc2c[nH]c3ccccc23)NC(=O)[C@H](CO)NC(=O)[C@H](Cc2c[nH]c3ccccc23)NC(=O)[C@H]([C@@H](C)O)NC(=O)[C@H](CCC(=O)O)NC(=O)[C@H](CCSC)NC(=O)[C@@H]2CSCCC(=O)N3CN(CN(C3)C(=O)CCSC[C@H](NC(=O)[C@H](C)NC(=O)[C@H](CC(=O)O)NC(=O)[C@@H](N)CC(=O)O)C(=O)N3CCC[C@H]3C(=O)N[C@@H](Cc3ccccc3)C(=O)NCC(=O)N2)C(=O)CCSC[C@@H](C(=O)N[C@@H](C)C(N)=O)NC(=O)[C@H](Cc2c[nH]c3ccccc23)NC1=O` [BCY3386, DDA-(SEQ ID NO: 45)-A] (H-DDACPFGCMETWSWPIWCA-NH2; linker 4-8-18 via TATA; N-terminus and C-terminus assumed), the Ki turned out to be 0.0802 µM.

Regarding `CC[C@H](C)[C@@H]1NC(=O)[C@@H]2CCCN2C(=O)[C@H](Cc2c[nH]c3ccccc23)NC(=O)[C@H](CO)NC(=O)[C@H](Cc2c[nH]c3ccccc23)NC(=O)[C@H](CC(=O)O)NC(=O)[C@H](CCCCN)NC(=O)[C@H](CCSC)NC(=O)[C@@H]2CSCCC(=O)N3CN(CN(C3)C(=O)CCSC[C@H](NC(=O)[C@H](CC(N)=O)NC(=O)[C@H](CC(=O)O)NC(=O)[C@@H](N)CO)C(=O)N3CCC[C@H]3C(=O)N[C@@H](Cc3ccccc3)C(=O)NCC(=O)N2)C(=O)CCSC[C@@H](C(=O)N[C@@H](C)C(N)=O)NC(=O)[C@H](Cc2c[nH]c3ccccc23)NC1=O` [BCY3387, SDN-(SEQ ID NO: 15)-A] (H-SDNCPFGCMKDWSWPIWCA-NH2; linker 4-8-18 via TATA; N-terminus and C-terminus assumed), the Ki came out at 0.234 µM.

On to `CC[C@H](C)[C@@H]1NC(=O)[C@@H]2CCCN2C(=O)[C@H](Cc2c[nH]c3ccccc23)NC(=O)[C@H](CO)NC(=O)[C@H](Cc2c[nH]c3ccccc23)NC(=O)CNC(=O)[C@H](CO)NC(=O)[C@H](CCSC)NC(=O)[C@@H]2CSCCC(=O)N3CN(CN(C3)C(=O)CCSC[C@H](NC(=O)[C@H](CCC(=O)O)NC(=O)[C@H](CO)NC(=O)[C@@H](N)CC(=O)O)C(=O)N3CCC[C@H]3C(=O)N[C@@H](Cc3ccccc3)C(=O)NCC(=O)N2)C(=O)CCSC[C@@H](C(=O)N[C@@H](C)C(N)=O)NC(=O)[C@H](Cc2c[nH]c3ccccc23)NC1=O` [BCY3389, DSE-(SEQ ID NO: 47)-A] (H-DSECPFGCMSGWSWPIWCA-NH2; linker 4-8-18 via TATA; N-terminus and C-terminus assumed), for which the Ki was 0.0998 µM.

`CC[C@H](C)[C@@H]1NC(=O)[C@@H]2CCCN2C(=O)[C@H](Cc2c[nH]c3ccccc23)NC(=O)[C@H](CO)NC(=O)[C@H](Cc2c[nH]c3ccccc23)NC(=O)CNC(=O)[C@H](CCC(=O)O)NC(=O)[C@H](CCSC)NC(=O)[C@@H]2CSCCC(=O)N3CN(CN(C3)C(=O)CCSC[C@H](NC(=O)[C@H](C)NC(=O)[C@H](CC(=O)O)NC(=O)[C@@H](N)Cc3c[nH]cn3)C(=O)N3CCC[C@H]3C(=O)N[C@@H](Cc3ccccc3)C(=O)NCC(=O)N2)C(=O)CCSC[C@@H](C(=O)N[C@@H](C)C(N)=O)NC(=O)[C@H](Cc2c[nH]c3ccccc23)NC1=O` [BCY3390, HDA-(SEQ ID NO: 48)-A] (H-HDACPFGCMEGWSWPIWCA-NH2; linker 4-8-18 via TATA; N-terminus and C-terminus assumed): the Ki was found to be 0.302 µM.

`CC[C@H](C)[C@@H]1NC(=O)[C@@H]2CCCN2C(=O)[C@H](Cc2c[nH]c3ccccc23)NC(=O)[C@H](CO)NC(=O)[C@H](Cc2c[nH]c3ccccc23)NC(=O)[C@H](CC(=O)O)NC(=O)[C@H](CCC(=O)O)NC(=O)[C@H](CCSC)NC(=O)[C@@H]2CSCCC(=O)N3CN(CN(C3)C(=O)CCSC[C@H](NC(=O)[C@@H](NC(=O)[C@H](CC(=O)O)NC(=O)[C@@H](N)CCSC)[C@@H](C)O)C(=O)N3CCC[C@H]3C(=O)N[C@@H](Cc3ccccc3)C(=O)NCC(=O)N2)C(=O)CCSC[C@@H](C(=O)N[C@@H](C)C(N)=O)NC(=O)[C@H](Cc2c[nH]c3ccccc23)NC1=O` [BCY3391, MDT-(SEQ ID NO: 49)-A] (H-MDTCPFGCMEDWSWPIWCA-NH2; linker 4-8-18 via TATA; N-terminus and C-terminus assumed): the Ki was found to be 0.198 µM.

As for `CC[C@H](C)[C@@H]1NC(=O)[C@@H]2CCCN2C(=O)[C@H](Cc2c[nH]c3ccccc23)NC(=O)[C@H](CO)NC(=O)[C@H](Cc2c[nH]c3ccccc23)NC(=O)CNC(=O)[C@@H]2CCCN2C(=O)[C@H](CCSC)NC(=O)[C@@H]2CSCCC(=O)N3CN(CN(C3)C(=O)CCSC[C@H](NC(=O)CNC(=O)[C@@H]3CCCN3C(=O)[C@@H](N)CC(=O)O)C(=O)N3CCC[C@H]3C(=O)N[C@@H](Cc3ccccc3)C(=O)NCC(=O)N2)C(=O)CCSC[C@@H](C(=O)N[C@@H](C)C(N)=O)NC(=O)[C@H](Cc2c[nH]c3ccccc23)NC1=O` [BCY3392, DPG-(SEQ ID NO: 50)-A] (H-DPGCPFGCMPGWSWPIWCA-NH2; linker 4-8-18 via TATA; N-terminus and C-terminus assumed), the Ki is 0.0363 µM.

By Ki is commonly meant the dissociation constant of the complex between target and ligand, obtained from inhibition or displacement.
